From patent US12410428B2, “RNA-guided transcriptional regulation and methods of using the same for the treatment of back pain” (University of Utah Research Foundation, priority 2018, dated 2025)

Experiments:
TNFR1 = assay: Human NP cell CRISPRi: TNFR1 knockdown by qRT-PCR; assay type: cell-based; settings: human NP cells
Method: Human NP Cell CRISPRi. […] Quantitative RT-PCR was performed to identify TNFR1 knockdown in these primary human NP cells. Additionally, flow-cytometry was performed to determine transduction efficiency in human NP cells.

[1] = tested on: TNFR1 signaling (NF-κB activity); assay: NF-κB activity assay in HEK293T cells dosed with TNF-α; assay type: cell-based, human; settings: 0.15 ng/mL TNF-α, 24 hours
Method: Measurement of functional effects of epigenome editing based gene downregulation. NE-κB activity assays. HEK293T cells and hADMSCs were transduced with the earlier mentioned NF-κB reporter vector and analyzed for changes in NF-κB activity in response to dosing cells with TNF-α/IL-1β (RnD systems, ProSpec). To further describe, cells expressing the NF-κB reporter were plated in white 96-well plates (HEK293T cells at 25,000 cells/well and hADMSCs at 5000 cells/well) and allowed to attach overnight. The next day cells were dosed with the appropriate amounts of inflammatory cytokines (0, […], 1, and/or 10 ng/mL of TNF-α/IL-1β) for 24 hours. At 24 hours luminescence corresponding to NF-κB activity was measured in one set of cells using the bright glo assay (Promega) and cell number was measured on another set of cells under the same treatment using the real-time glo assay (Promega). Changes in NF-κB activity were quantified as a fold change in luminescence relative to the no dose control for each cell type, with NF-κB activity normalized to cell number.

Row | Substance | TNFR1 knockdown (TNFR1; with dCas9-KRAB) | TNFR1 knockdown (TNFR1; with dCas9 alone) | NF-κB activity vs no dose control [1]
1 | 5′-AUAAGCGUCCGACACAUGAU-3′ (expressed or natural sequence) [TNFR1 gRNA 4, 82] | 55% | no knockdown | 
2 | 5′-CAGUGUUGCAACAGCGGGAC-3′ (expressed or natural sequence) [TNFR1 gRNA 1, 79] |  |  | no significant increase in NF-κB activity
